Laboratory results as given in ChEMBL document CHEMBL1926659, “CK2α and CK2α' subunits differ in their sensitivity to 4,5,6,7-tetrabromo- and 4,5,6,7-tetraiodo-1H-benzimidazole derivatives” (Eur J Med Chem, 2012).

Experiments:
[1] = biological target: T1, Casein kinase II subunit alpha' (Homo sapiens, UniProt P19784); assay: Inhibition of human CK2 alpha' catalytic subunit expressed in Escherichia coli BL21 (DE3) assessed as [33P]gamma-ATP incorporation into P2B substrate after 15 mins by scintillation counting
T1 sequence (P19784 whole entry): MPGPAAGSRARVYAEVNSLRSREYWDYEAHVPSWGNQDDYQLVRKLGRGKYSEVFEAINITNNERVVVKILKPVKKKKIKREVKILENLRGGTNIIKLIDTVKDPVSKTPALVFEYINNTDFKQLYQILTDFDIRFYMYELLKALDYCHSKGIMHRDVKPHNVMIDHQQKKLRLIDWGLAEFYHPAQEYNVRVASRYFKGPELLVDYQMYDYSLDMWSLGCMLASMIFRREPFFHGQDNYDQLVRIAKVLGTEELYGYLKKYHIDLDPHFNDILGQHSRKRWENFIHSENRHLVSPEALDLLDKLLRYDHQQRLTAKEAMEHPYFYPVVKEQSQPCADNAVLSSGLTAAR

[2] = biological target: T1, Casein kinase II subunit alpha'; assay: Inhibition of human CK2 alpha' catalytic subunit expressed in Escherichia coli […] (DE3) assessed as [33P]gamma-ATP incorporation into RRRADDSDDDDD substrate after 15 mins by scintillation counting
[3] = biological target: T2, Casein kinase II subunit alpha (Homo sapiens, UniProt P68400); assay: Inhibition of human CK2 alpha catalytic subunit expressed in Escherichia coli BL21 (DE3) assessed as [32P]gamma-ATP incorporation into P2B substrate after 15 mins by scintillation counting
T2 sequence (P68400 whole entry): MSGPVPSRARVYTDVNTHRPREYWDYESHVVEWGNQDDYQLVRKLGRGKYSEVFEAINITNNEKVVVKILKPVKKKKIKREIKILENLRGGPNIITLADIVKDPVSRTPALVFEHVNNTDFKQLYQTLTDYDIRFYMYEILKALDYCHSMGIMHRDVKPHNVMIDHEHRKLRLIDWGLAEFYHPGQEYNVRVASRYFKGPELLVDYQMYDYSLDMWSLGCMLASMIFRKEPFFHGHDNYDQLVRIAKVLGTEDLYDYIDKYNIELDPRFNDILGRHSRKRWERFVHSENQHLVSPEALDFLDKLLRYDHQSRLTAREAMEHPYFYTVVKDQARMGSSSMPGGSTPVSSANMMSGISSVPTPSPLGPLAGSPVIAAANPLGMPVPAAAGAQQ

[4] = biological target: T2, Casein kinase II subunit alpha; assay: Inhibition of human CK2 alpha catalytic subunit expressed in Escherichia coli BL21 (DE3) assessed as [32P]gamma-ATP incorporation into RRRADDSDDDDD substrate after 15 mins by scintillation counting

Structure (SMILES) | Ki [1] | Ki [2] | Ki [3] | Ki [4]
Cn1c(SCC(=O)O)nc2c(Br)c(Br)c(Br)c(Br)c21 | 200 nM | 24 nM | 143 nM | 13 nM
CN(C)c1nc2c(Br)c(Br)c(Br)c(Br)c2n1CCCC(=O)O | 139 nM | 93 nM | 860 nM | 456 nM
O=C(O)CCCSc1nc2c(Br)c(Br)c(Br)c(Br)c2[nH]1 | 88 nM | 44 nM | 77 nM | 210 nM
O=C(O)CSc1nc2c(Br)c(Br)c(Br)c(Br)c2[nH]1 | 37 nM | 49 nM | 106 nM | 170 nM
O=C(O)Cn1cnc2c(Br)c(Br)c(Br)c(Br)c21 | 609 nM | 342 nM | 798 nM | 670 nM
Brc1c(Br)c(Br)c2[nH]cnc2c1Br | 270 nM | 343 nM |  | 
O=C(O)CSc1nc2c(I)c(I)c(I)c(I)c2[nH]1 | 78 nM | 106 nM | 110 nM | 80 nM
Ic1c(I)c(I)c2[nH]cnc2c1I | 71 nM | 21 nM | 266 nM | 43 nM
Cn1c(SCCCC(=O)O)nc2c(Br)c(Br)c(Br)c(Br)c21 | 83 nM | 768 nM | 88 nM | 501 nM
O=C(O)CCSc1nc2c(Br)c(Br)c(Br)c(Br)c2[nH]1 | 35 nM | 31 nM | 116 nM | 172 nM
Cn1c(SCCC(=O)O)nc2c(Br)c(Br)c(Br)c(Br)c21 | 100 nM | 55 nM | 112 nM | 137 nM
CN(C)c1nc2c(Br)c(Br)c(Br)c(Br)c2n1C | 109 nM | 35 nM | 212 nM | 154 nM
O=C(O)Cn1cnc2c(I)c(I)c(I)c(I)c21 | 62 nM | 324 nM | 378 nM | 261 nM
O=C(O)CCCn1cnc2c(Br)c(Br)c(Br)c(Br)c21 | 188 nM | 195 nM | 472 nM | 368 nM
CN(C)c1nc2c(Br)c(Br)c(Br)c(Br)c2n1CC(=O)O | 66 nM | 21 nM | 88 nM | 83 nM
